Tests used:
MdmX = assay: etoposide-induced MdmX degradation in MCF7 cells (Western blot); format: cell-based, human; conditions: etoposide 30 μg/ml, 16 hours
Description: Cells were plated in 384-well format and treated with MG132 (2 hours) or cycloheximide (30 minutes). Steadylite luminescence buffer (PerkinElmer) was added and the relative luminescence levels determined on a Victor3 Plate Reader. Each graph represents the median of 5 replicates normalized to a no treatment control, and one standard deviation is shown. […] The graphs and EC50 values were determined using Graphpad PRISM®. […] U2OS, RKO, and HCT116 cells (p53 wild-type) were incubated with 5 μg/ml (14 μM) of MEL23, 5 μg/ml (15 μM) of MEL24, or 10 μM of MG132 for 6 hours. Cells were lysed and analyzed by Western blotting using anti-Mdm2, anti-p53, and anti-eIF4E antibodies. NT indicates a no treatment control. […] MCF7 cells (p53 wild-type) were incubated with 30 μg/ml (51 μM) etoposide alone or in combination with 50 μM AlIn or 5 μg/ml (14 μM) MEL23, or 5 μg/ml (15 μM) MEL24 for 16 hours. Cells were lysed and analyzed by Western blotting using anti-MDMX and anti-actin antibodies.
(§1) Cells were seeded and treated with the indicated compound(s). Cells were lysed after each time point in a buffer of 50 mM TrisHCl pH 7.5, 200 mM NaCl, 0.5% NP-40, and 1 complete mini EDTA-free protease inhibitor cocktail tablet per 10 mL of buffer (Roche, Cat. No. 8360170). Protein content was quantified using a Biorad protein assay reagent (Bio-Rad Laboratories, Hercules, Calif., Cat. No. 500-0006). SDS sample buffer was added to the samples, and the mixture was boiled for 5 minutes. Equal amounts of protein were resolved on a 1D SDS-PAGE gel. Following separation proteins were transferred to nitrocellulose membrane, blocked with 5% milk, and then incubated with primary antibody overnight at 4° C. The membrane was incubated with secondary-HRP antibody for 45 minutes at room temperature and developed with SuperSignal West Pico Substrate (Pierce, Rockford, Ill., Cat. No. 34080).

[1] = test system: wild-type, p53−/− and p53−/−; mdm2−/− MEFs; assay: Alamar Blue viability assay, mouse embryonic fibroblasts; format: cell-based; conditions: 48 hours
Description: RKO and RKO-E6 cells were seeded in 384-well plates and treated with a dilution series of MEL23 for 48 hours as indicated. Alamar Blue was added for 16 hours and fluorescence determined on a Victor3 Plate Reader. The median percent inhibition of five replicates was determined and normalized to a no treatment control. One standard deviation is shown. […] Cells were seeded in 384-well plates and treated with a dilution series of MEL23 for 48 hours at the indicated concentrations. Alamar Blue was added for 16 hours and fluorescence determined on a Victor3 Plate Reader. The median percent inhibition of five replicates was determined and normalized to a no treatment control. One standard deviation is shown.
Cells were seeded in 384-well black clear-bottom plates (Corning Inc., Corning, N.Y., Cat. No. 07-200-655). Cells were then treated with the indicated concentration of compound. Plates were incubated for 48 hours at 37° C. Alamar Blue (Invitrogen, Cat. No. DAL1100) was added to each well to a final concentration of 10% and incubated at 37° C. for 16 hours. Fluorescence intensity was determined using the Victor3 Plate Reader (PerkinElmer). Median percent survival or growth inhibition was calculated and normalized to a no treatment control.

Mdm2 = assay: Western blot of Mdm2 in MEFs; format: cell-based, mouse; conditions: 5 μg/ml (14 μM), 6 hours
Description: MEFs were treated with 5 μg/ml (14 μM) of MEL23 for 6 hours. Cells were lysed and analyzed by Western blotting using anti-Mdm2 and anti-eIF4E antibodies. NT indicates a no treatment control.
as §1

Compound	etoposide-induced MdmX degradation (MdmX)	survival of p53−/− MEFs ([1]; dilution series)	survival of wild-type MEFs ([1]; dilution series)	survival of p53−/− mdm2−/− MEFs ([1]; highest concentration tested)	Mdm2 level in MEFs (Mdm2)
CCCCn1c(=O)[nH]c(O)c(C2NCCc3c2[nH]c2ccccc32)c1=O (stereo not drawn) [MEL23]	degradation could be prevented	also decreased	survival of the wild-type cells decreased the greatest	Only a small decrease in cell survival	increased Mdm2 in MEFs
Cn1c(O)c(C2NCCc3c2[nH]c2ccccc32)c(=O)n(C)c1=O (stereo not drawn) [MEL24]	degradation could be prevented				
